According to patent US10934283B2, “COMT inhibiting methods and compositions” (LIEBER INSTITUTE FOR BRAIN DEVELOPMENT, priority 2015, dated 2021):

Molecular target: T1, catechol-O-methyltransferase (COMT) (Homo sapiens, UniProt P21964)
T1 construct: M51A variant) was expressed in HEK 293F cells
T1 sequence (P21964 52-271 limits assumed): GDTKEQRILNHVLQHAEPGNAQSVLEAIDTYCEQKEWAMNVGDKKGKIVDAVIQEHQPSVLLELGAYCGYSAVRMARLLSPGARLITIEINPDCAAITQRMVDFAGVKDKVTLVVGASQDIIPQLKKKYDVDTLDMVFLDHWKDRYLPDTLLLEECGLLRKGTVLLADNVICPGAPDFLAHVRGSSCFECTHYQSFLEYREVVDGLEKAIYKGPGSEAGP
Experiment: COMT inhibition assay (HTRF, production of SAH from SAM)
Type: biochemical
Conditions: table does not say MB-COMT or S-COMT
Method: The ability of compounds to inhibit the activity of catechol-O-methyltransferase (COMT) was determined by a homogenous time-resolved fluorescent (HTRF) assay (Lina et al, 2012; kit from CisBio, Codolet, France). This assay measures the production of S-adenosyl homocysteine (SAH) from the methyl donor S-adenosyl methionine. Recombinant human membrane bound COMT (MB-COMT; M51A variant) was expressed in HEK 293F cells using 293Fectin (Life Technologies, Gent, Belgium) and membranes prepared. The membranes were re-suspended in buffer (20 mM Tris/HCl pH 7; 10 mM glycerol; 2 mM MgCl2; 10 mM NaCl), aliquoted and stored at −80° C. Recombinant human soluble COMT(S-COMT), Val158 variant and a hexa-His tag on the N-terminus, was purified using Ni-NTA chromatography, the His tag removed and stored in buffer as above.
For the human MB-COMT assay, membranes (62 ng/well) were incubated with SAM (20 μM final, CisBio) and dopamine (1.5 μM final; Sigma H8502, Diegem, Belgium) in the presence or absence of varying concentrations (typically 10 concentrations ranging from 10 ? M to 0.1 nM) of compound for 40 min at 37° C. in 384-well microtiter plates (10 ? l per well final volume). The reaction was terminated by the addition of acylation buffer and the amount of SAH produced determined according to manufacturer's instructions. Specific inhibition as that inhibited by a high concentration of tolcapone and all experiments were validated using a control curve to tolcapone.
The human S-COMT assay was performed as above except that 0.15 ng enzyme/well was incubated with SAM ([…]) and dopamine (100 μM final) for 15 min at 37° C. and SAH production determined.
HTRF readings were performed using a Perkin Elmer Envision and results expressed as concentration of SAH produced using a standard curve. Results were analyzed using non-linear regression to the 4-parameter logistic equation and pIC50 (−log 10 concentration of drug which inhibits enzyme activity/SAH production by 50%) determined.

| SMILES | Activity range (pIC50) |
| --- | --- |
| O=c1cc2n(cc1O)CCN(Cc1coc3ccccc3c1=O)C2 [Example 41, 7-hydroxy-2-[(4-oxo-4H-chromen-3-yl)methyl]-1,2,3,4-tetrahydro-8H-pyrido[1,2-a]pyrazin-8-one] | ++ (two plus signs (++) is associated with a pIC50 of from about 6 to 7) |
| N#Cc1ccccc1CN1CCn2cc(O)c(=O)cc2C1 [Example 17, 2-[(7-hydroxy-8-oxo-1,3,4,8-tetrahydro-2H-pyrido[1,2-a]pyrazin-2-yl)methyl]benzonitrile] | ++ (two plus signs (++) is associated with a pIC50 of from about 6 to 7) |
| CC(c1ccccc1OCc1ccccc1)N1CCn2cc(O)c(=O)cc2C1 (stereo not drawn) [Example 77, 2-{1-[2-(benzyloxy)phenyl]ethyl}-7-hydroxy-1,2,3,4-tetrahydro-8H-pyrido[1,2-a]pyrazin-8-one] | +++ (three plus signs (+++) is associated with a pIC50 of above about 7) |
| O=c1cc2n(cc1O)CCN(Cc1cc(Cl)cc3c1OCCC3c1c[nH]cn1)C2 (stereo not drawn) [Example 35, 2-{[6-chloro-4-(1H-imidazol-4-yl)-3,4-dihydro-2H-chromen-8-yl]methyl}-7-hydroxy-1,2,3,4-tetrahydro-8H-pyrido[1,2-a]pyrazin-8-one] | ++ (two plus signs (++) is associated with a pIC50 of from about 6 to 7) |
| O=c1cc2n(cc1O)CCN(Cc1ccc(F)cc1)C2 [Example 3, 2-[(4-fluorophenyl)methyl]-7-hydroxy-3,4-dihydro-1H-pyrido[1,2-a]pyrazin-8-one] | + (a single plus (+) is associated with a pIC50 of from about 4.5 to 6) |
| O=c1cc2n(cc1O)CC(Cc1ccccc1)N(Cc1c(Cl)cccc1Cl)C2 (stereo not drawn) [Example 129, 3-benzyl-2-(2,6-dichlorobenzyl)-7-hydroxy-1,2,3,4-tetrahydro-8H-pyrido[1,2-a]pyrazin-8-one] | ++ (two plus signs (++) is associated with a pIC50 of from about 6 to 7) |
| O=c1cc2n(cc1O)CCN(Cc1ccccc1F)C2 [Example 39, 2-(2-fluorobenzyl)-7-hydroxy-1,2,3,4-tetrahydro-8H-pyrido[1,2-a]pyrazin-8-one] | +++ (three plus signs (+++) is associated with a pIC50 of above about 7) |
| O=c1cc2n(cc1O)CCN(Cc1c(Cl)cccc1Cl)C2 [Example 60, 2-[(2,6-dichlorophenyl)methyl]-7-hydroxy-3,4-dihydro-1H-pyrido[1,2-a]pyrazin-8-one] | +++ (three plus signs (+++) is associated with a pIC50 of above about 7) |
| CC(c1ccc(C#N)cc1)N1CCn2cc(O)c(=O)cc2C1 (stereo not drawn) [Example 94, 4-[1-(7-hydroxy-8-oxo-1,3,4,8-tetrahydro-2H-pyrido[1,2-a]pyrazin-2-yl)ethyl]benzonitrile] | ++ (two plus signs (++) is associated with a pIC50 of from about 6 to 7) |
| O=c1cc2n(cc1O)CCN(C1CCCCc3ccccc31)C2 (stereo not drawn) [Example 86, 7-hydroxy-2-(6,7,8,9-tetrahydro-5H-benzo[7]annulen-5-yl)-1,2,3,4-tetrahydro-8H-pyrido[1,2-a]pyrazin-8-one] | +++ (three plus signs (+++) is associated with a pIC50 of above about 7) |
| O=c1cc2n(cc1O)CCN(Cc1cc([N+](=O)[O-])c(Cl)cc1Cl)C2 [Example 66, 2-[(2,4-dichloro-5-nitro-phenyl)methyl]-7-hydroxy-3,4-dihydro-1H-pyrido[1,2-a]pyrazin-8-one] | +++ (three plus signs (+++) is associated with a pIC50 of above about 7) |
| O=c1cc2n(cc1O)CCN(Cc1cc3ccccc3n1S(=O)(=O)c1ccccc1)C2 [Example 29, 7-hydroxy-2-{[1-(phenylsulfonyl)-1H-indol-2-yl]methyl}-1,2,3,4-tetrahydro-8H-pyrido[1,2-a]pyrazin-8-one] | +++ (three plus signs (+++) is associated with a pIC50 of above about 7) |
| Cc1cccc(CN2CCn3cc(O)c(=O)cc3C2)c1C [Example 37, 2-(2,3-dimethylbenzyl)-7-hydroxy-1,2,3,4-tetrahydro-8H-pyrido[1,2-a]pyrazin-8-one] | +++ (three plus signs (+++) is associated with a pIC50 of above about 7) |
| CC(c1ccccc1Cl)N1CCn2cc(O)c(=O)cc2C1 (stereo not drawn) [Example 76, 2-[1-(2-chlorophenyl)ethyl]-7-hydroxy-1,2,3,4-tetrahydro-8H-pyrido[1,2-a]pyrazin-8-one] | +++ (three plus signs (+++) is associated with a pIC50 of above about 7) |
| O=c1cc2n(cc1O)CC(CCc1ccccc1)N(Cc1ccccc1)C2 (stereo not drawn) [Example 132, 2-benzyl-7-hydroxy-3-(2-phenylethyl)-1,2,3,4-tetrahydro-8H-pyrido[1,2-a]pyrazin-8-one] | +++ (three plus signs (+++) is associated with a pIC50 of above about 7) |
| O=c1cc2n(cc1O)CCN(Cc1cccc3cccnc13)C2c1ccc(F)cc1 (stereo not drawn) [Example 123, 1-(4-fluorophenyl)-7-hydroxy-2-(quinolin-8-ylmethyl)-1,2,3,4-tetrahydro-8H-pyrido[1,2-a]pyrazin-8-one] | +++ (three plus signs (+++) is associated with a pIC50 of above about 7) |
| O=c1cc2n(c(F)c1O)CCN(Cc1ccccc1Cl)C2 [Example 134, 6-fluoro-7-hydroxy-2-[[2-chlorophenyl]methyl]-3,4-dihydro-1H-pyrido[1,2-a]pyrazin-8-one] | ++ (two plus signs (++) is associated with a pIC50 of from about 6 to 7) |
| COc1ccc(CN2CCn3cc(O)c(=O)cc3C2)cc1 [Example 50, 7-hydroxy-2-(4-methoxybenzyl)-1,2,3,4-tetrahydro-8H-pyrido[1,2-a]pyrazin-8-one] | ++ (two plus signs (++) is associated with a pIC50 of from about 6 to 7) |
| COc1cccc(C(C)N2CCn3cc(O)c(=O)cc3C2)c1 (stereo not drawn) [Example 83, 7-hydroxy-2-[1-(3-methoxyphenyl)ethyl]-1,2,3,4-tetrahydro-8H-pyrido[1,2-a]pyrazin-8-one] | ++ (two plus signs (++) is associated with a pIC50 of from about 6 to 7) |
| CC(c1cccc(Cl)c1)N1CCn2cc(O)c(=O)cc2C1 (stereo not drawn) [Example 72, 2-[1-(3-chlorophenyl)ethyl]-7-hydroxy-1,2,3,4-tetrahydro-8H-pyrido[1,2-a]pyrazin-8-one] | ++ (two plus signs (++) is associated with a pIC50 of from about 6 to 7) |
| O=c1cc2n(cc1O)CCN(Cc1nc3ccccc3s1)C2 [Example 38, 2-(1,3-benzothiazol-2-ylmethyl)-7-hydroxy-1,2,3,4-tetrahydro-8H-pyrido[1,2-a]pyrazin-8-one] | ++ (two plus signs (++) is associated with a pIC50 of from about 6 to 7) |
| O=c1cc2n(cc1O)CCN(c1ccccc1)C2 [Example 112, 7-hydroxy-2-phenyl-1,2,3,4-tetrahydro-8H-pyrido[1,2-a]pyrazin-8-one] | +++ (three plus signs (+++) is associated with a pIC50 of above about 7) |
| O=c1cc2n(cc1O)CCN(c1nc3ccccc3s1)C2 [Example 108, 2-(1,3-benzothiazol-2-yl)-7-hydroxy-3,4-dihydro-1H-pyrido[1,2-a]pyrazin-8-one] | ++ (two plus signs (++) is associated with a pIC50 of from about 6 to 7) |
| O=c1cc2n(cc1O)CCN(C(CF)c1ccccc1)C2 (stereo not drawn) [Example 105, 2-(2-fluoro-1-phenyl-ethyl)-7-hydroxy-3,4-dihydro-1H-pyrido[1,2-a]pyrazin-8-one] | +++ (three plus signs (+++) is associated with a pIC50 of above about 7) |
| O=c1c(O)cn2c(c1I)CN(Cc1ccccc1Cl)CC2 [Example 140, 2-[(2-chlorophenyl)methyl]-7-hydroxy-9-iodo-3,4-dihydro-1H-pyrido[1,2-a]pyrazin-8-one] | + (a single plus (+) is associated with a pIC50 of from about 4.5 to 6) |
| CCCCC(c1ccccc1)N1CCn2cc(O)c(=O)cc2C1 (stereo not drawn) [Example 78, 7-hydroxy-2-(1-phenylpentyl)-1,2,3,4-tetrahydro-8H-pyrido[1,2-a]pyrazin-8-one] | +++ (three plus signs (+++) is associated with a pIC50 of above about 7) |
| Cc1nn(C)c(Cl)c1CN1CCn2cc(O)c(=O)cc2C1 [Example 40, 2-[(5-chloro-1,3-dimethyl-1H-pyrazol-4-yl)methyl]-7-hydroxy-1,2,3,4-tetrahydro-8H-pyrido[1,2-a]pyrazin-8-one] | ++ (two plus signs (++) is associated with a pIC50 of from about 6 to 7) |
